Results reported in US20250109127A1, “METHODS OF USE OF PHENOXYPROPYLAMINE COMPOUNDS TO TREAT DEPRESSION” (Minerva Neurosciences, Inc., priority 2013, published 2025).
Values joined by “and” are separate entries in the source; they are usually repeats but may differ in a detail not shown here. Equal values may be shown once. Where a name gives a salt, the structure may show the parent alone.

System: dopamine release in the rat prefrontal cortex
Assay: Microdialysis: dopamine release in prefrontal cortex after I.P. administration
Assay type: in vivo
Settings: for Dopamine release, individual animals / Dopamine release, MEAN: 0.3 mg/kg I.P.; for Dopamine release, individual animals: one column per animal R#11,12,18,23,29,30,17,24, hydrochloride; for Dopamine release, MEAN / DOPAMINE (% of respective basal) MEAN: n = 8; for DOPAMINE (% of respective basal) MEAN: SON-117 group 0.1 mg/kg I.P.
Experimental: The aim of the study was to evaluate, using microdialysis, the effects of an intraperitoneal (I.P.) administration in rats of three different doses of SON-117 on dopamine and its metabolites, serotonin and its metabolite (5-HIAA), and norepinephrine levels in prefrontal cortex.
Thirty-two adult male Wistar rats were used for the whole study (4 groups of eight animals planned for the study, Table 1).
Surgery was performed on rats weighing about 300 g at the beginning of the experiments. Rats were anaesthetized with Ketamine (50 mg/kg) & Xylazine (15 mg/kg) by intramuscular administration. The animals were placed in a stereotaxic apparatus in the flat-skull position at a constant setting of −3.3 mm between ear bars and the incisor bar. The animals were treated with a local anesthesic (xylocaine 1%, Astra Zeneca) and an analgesic (Temgesic, from Schering Plough, 0.05 mg/kg, s.c.). A rostrocaudal midline incision was made with a lancet to expose the dorsal skull surface. The “stereotaxic zero” was defined by the Bregma in accordance with Paxinos and Watson's atlas (1986). A hole was drilled in the skull with a drill and the meninges were pierced with a sterile needle to implant a CMA12 guide cannula which later received the dialysis probe.
Coordinates used for implanting guide cannula in prefrontal cortex from Bregma were anteroposterior 3.7 mm, mediolateral 0.8 mm, and dorsoventral −2 mm (top of the probe was at −5 mm). The guide cannula was fixed to the skull with two stainless steel screws (1.88 mm outside diameter) anchored. An application of dental cement was added. A plastic collar allowed each animal to be tethered to a Swivel assembly of the CMA 120 awake animal system. Following surgery, rats were kept in individual cages and allowed to recover for a minimum of 3-5 days before the experimentation. The rats were handled and put in plastic bowl for 10 min at least every day to habituate the animals to their new environment for the dialysis. An I.P. administration with saline was also performed every day.
Dialysis probes (CMA12/3 mm, membrane, 20 kD cut-off, Carnegie Medicine, Stockholm, Sweden), were carefully washed before inserting into the guide cannula. The wash was performed with the artificial cerebrospinal fluid (aCSF) medium (NaCl 147 mM, KCl 2.7 mM, CaCl2 1.2 mM, MgCl2 0.85 mM) at room temperature. The dialysis system was then equilibrated at 20° C. at a perfusion rate of 1 μl/min with a Carnegie pump (CMA100). All catheters (FEP tubing, internal volume of 1.2 μl/10 cm, and tubing adaptors) used for microdialysis were treated in the same conditions.
The probes duly prepared were inserted into the guide cannula and the CMA120 Swivel assembly secured to the animal using a plastic collar. Flow through the dialysis probe with aCSF was maintained at a rate of 1 μl/min during the whole experimentation. The first four fractions (corresponding to 2 hours) were discarded to avoid the effects of parenchymal disturbance and to ensure that an approximate steady-state level was reached. Fractions were then collected over a period of 8.5 h during which time the animals remained quiet. The dialysates were automatically collected with an autosampler (microfraction collector CMA 140, Carnegie Medicin) and stored at −80° C. until analysis. […] Perfusion was then maintained for 7 hours with aCSF. The dialysates (30 μl) were collected into 300 μl vials, transferred into dry ice and then kept frozen (−80° C.) until analysis. Frozen samples were shipped to a partner for analysis. At the end of the microdialysis study, a PBS with colored ink was perfused through the probe in order to visualize the dialyzed area.
Catecholamine assay: Concentrations of dopamine, DOPAC, HVA, 5-HIAA, 5-HT, and norepinephrin were determined for each sample by HPLC coupled with electrochemical detection.

[1] = T-30 min-T0 (before administration)
[2] = T-1 h 30-T-1 h (before administration)
[3] = T-1 h-T-30 min (before administration)

Compound: Cc1nnc(-c2cc3c(OC[C@@H](O)CN4CCC(c5ccc(Cl)c(Cl)c5)CC4)cccc3o2)o1 [SON-117, (S)-1-(4-(3,4-dichlorophenyl)piperidino)-3-(2-(5-methyl-1,3,4-oxadiazol-2-yl)benzo(b)furan-4-yloxy)-2-propanol hydrochloride]
- Dopamine release, individual animals (T5 h 30-T6 h): 1190.31 % of respective basal and 66.72 % of respective basal and 285.31 % of respective basal and 29.48 % of respective basal and 247.57 % of respective basal and 111.91 % of respective basal and 52.03 % of respective basal and 128.48 % of respective basal
- Dopamine release, MEAN (T5 h-T5 h 30): 263.19 % of respective basal
- Dopamine release, individual animals (T5 h-T5 h 30): 611.23 % of respective basal and 37.39 % of respective basal and 1036.44 % of respective basal and 30.12 % of respective basal and 108.05 % of respective basal and 81.56 % of respective basal and 80.36 % of respective basal and 120.37 % of respective basal
- Dopamine release, MEAN (T6 h 30-T7 h): 297.55 % of respective basal
- Dopamine release, individual animals (T6 h 30-T7 h): 331.87 % of respective basal and 230.42 % of respective basal and 224.57 % of respective basal and 11.34 % of respective basal and 202.06 % of respective basal and 117.28 % of respective basal
- Dopamine release, MEAN (T6 h-T6 h 30): 267.65 % of respective basal
- Dopamine release, individual animals (T6 h-T6 h 30): 879.91 % of respective basal and 122.45 % of respective basal and 101.84 % of respective basal and 10.68 % of respective basal and 188.10 % of respective basal and 103.08 % of respective basal and 135.89 % of respective basal and 599.24 % of respective basal
- Dopamine release, MEAN [1]: 100.22 % of respective basal
- Dopamine release, MEAN [2]: 104.26 % of respective basal
- Dopamine release, MEAN [3]: 98.66 % of respective basal
- dopamine levels, increase (not statistically significant) (SON-117 0.1 mg/kg I.P., from 4.5 h to 7 h): 353%
- dopamine levels, increase (not statistically significant) (SON-117 0.1 mg/kg I.P., from T1.5 h and 2.5 h): 287%
- dopamine levels, increase (not statistically significant) (SON-117 0.3 mg/kg I.P., from 5.5 h to 7 h): 298%
- dopamine levels, slight increase (not statistically significant) (SON-117 3 mg/kg IP, at 1.5 h): 169%
- dopamine levels, slight increase, max. (not statistically significant) (SON-117 3 mg/kg IP, from 6 h to 7 h): 167%
- release of dopamine, trend (SON-117 0.1 and 0.3 mg/kg, from 5.5 h): trend for an increased release
- dopamine, difference to the citalopram group (two-way ANOVA) (SON-117 at the three doses tested, in function of time): no significant differences
- DOPAMINE (% of respective basal) MEAN (T0-T30 min): 133.37 % of respective basal
- DOPAMINE (% of respective basal) MEAN (T30-T1 h): 103.29 % of respective basal
- DOPAMINE (% of respective basal) MEAN (T1 h 30-T2 h): 151.81 % of respective basal
- DOPAMINE (% of respective basal) MEAN (T1 h-T1 h 30): 123.06 % of respective basal
- DOPAMINE (% of respective basal) MEAN (T2 h 30-T3 h): 138.45 % of respective basal
- DOPAMINE (% of respective basal) MEAN (T2 h-T2 h 30): 286.96 % of respective basal
- DOPAMINE (% of respective basal) MEAN (T3 h 30-T4 h): 155.83 % of respective basal
- DOPAMINE (% of respective basal) MEAN (T3 h-T3 h 30): 150.01 % of respective basal
- DOPAMINE (% of respective basal) MEAN (T4 h 30-T5 h): 240.84 % of respective basal
- DOPAMINE (% of respective basal) MEAN (T4 h-T4 h 30): 215.81 % of respective basal
- DOPAMINE (% of respective basal) MEAN (T5 h 30-T6 h): 188.21 % of respective basal
- DOPAMINE (% of respective basal) MEAN (T5 h-T5 h 30): 183.94 % of respective basal
- DOPAMINE (% of respective basal) MEAN (T6 h 30-T7 h): 353.25 % of respective basal
- DOPAMINE (% of respective basal) MEAN (T6 h-T6 h 30): 226.43 % of respective basal
- DOPAMINE (% of respective basal) MEAN [1]: 105.18 % of respective basal
- DOPAMINE (% of respective basal) MEAN [2]: 100.9 % of respective basal
- DOPAMINE (% of respective basal) MEAN [3]: 91.46 % of respective basal
